In one series the test system is T98G cells. The series is described as follows: Irradiation-induced cell death, PS externalization/PI permeabilization by flow cytometry. It counts as cell-based, human. The following applies: for irradiation induced cell death (PS externalization/PI permeability): drug 1-h prior to 25 Gy γ-irradiation, glyburide 12.5-200 μM, 72 h post-irradiation. The procedure:
(§1) Cells were cultured in fresh medium prior to irradiation and were γ-irradiated with a Shepherd model 143-45A irradiator (J. L. Shepherd & Associates, CA) at a dose rate of 4 Gy/min. Cells were incubated with drugs at the indicated concentrations 1 h before or 30 min after irradiation. Cell viability was determined using phosphatidylserine (PS) externalization/propidium iodide (PI) permeabilization assay or LDH Assay after 72 h post-irradiation incubation.
(§2) After 72 h post-irradiation incubation, attached cells were harvested by trypsinization and pooled with detached cells from supernatant. Harvested cells were then stained with annexin-V-FITC and PI for 5 min in the dark prior to flow cytometry analysis (FACscan, Becton-Dickinson, Rutherford, N.J.). Cell debris was gated out by forward and side scatter under the same conditions, and a minimum of 10,000 gated cells were acquired. Percentages of annexin-V-positive cells were calculated by combining annexin V+/PI− (early apoptotic) and annexin V+/PI+ (late apoptotic or necrotic) cells.
In the present study, we selected 10 chemicals that targeted 13 candidate siRNA gene transcripts for further study (Table 3). The radioprotective effects of the compounds were tested in T98G cells, which were initially used in the siRNA screen. […] The other nine chemicals lacked any obvious protective effect on γ-irradiation induced cell death under the current experimental conditions (FIG. 4A).

Another series has as its system BEAS-2B cells. The series is described as follows: Irradiation-induced cell death, flow cytometry. Conditions: 1-h prior to irradiation (10 Gy). It counts as cell-based, human. The procedure: as §1, §2
(§3) Cells were exposed to γ-irradiation at different doses (10 or 25 Gy) based on their radiosensitivity. […] The mechanisms responsible for the differences in glyburide response are not known but are worthy of further investigation.

Another series deals with U-87 MG cells. The series is described as follows: Irradiation-induced cell death, flow cytometry. It counts as cell-based, human. The following applies: 1-h prior to irradiation (10 Gy). The procedure: as §1, §2, §3
For orientation: In flow cytometry, cells or beads pass a laser one at a time.

The next series has as its system human primary astrocytes. The series is described as follows: Irradiation-induced cell death, LDH release assay. It counts as cell-based. The following applies: 50 and 100 μM, 1-h prior to irradiation (25 Gy). The procedure: as §1
For human primary astrocytes, cell viability was determined by assaying the medium from each sample for LDH activity according to the manufacturer's instructions (Sigma). The enzyme activity from the culture medium and floating cells were used as an index of cell death. To determine total LDH activity, the adherent cells were lysed in 0.5% Triton X-100 and assayed for LDH activity, this cell-associated LDH activity was then added to the LDH activity in the removed culture medium. The amount of LDH present in the medium was calculated as a percentage of the total, which was used to calculate the percent cell death in the corresponding samples.
as §3

The subject of another series is H1299 cells. The series is described as follows: Irradiation-induced cell death, cell-based assay. On the set-up: species or system human. The following applies: γ-irradiated (10 or 25 Gy), data not shown. The procedure: as §1, §3
A further series has as its system HeLa cells. The series is described as follows: Irradiation-induced cell death, cell-based assay. The arrangement: species or system human. The following applies: γ-irradiated (10 or 25 Gy), data not shown. The procedure: as §1, §3
The next series deals with KM101 cells. The series is described as follows: Irradiation-induced cell death, cell-based assay. On the set-up: species or system human. The following applies: γ-irradiated (10 or 25 Gy), data not shown. The procedure:
as §1, §3

The subject of another series is 32D cl 3 cells. The series is described as follows: In vitro irradiation survival curves (clonogenic survival assay). It counts as cell-based, mouse. The procedure: The cells were irradiated with doses ranging from 0 to 8 Gy. The 32D cl 3 cells were plated in methycellulose, incubated at 37° C. for one week at which time colonies of greater than 50 cells were counted (Epperly, M. W. et al. Mitochondrial localization of superoxide dismutase is required for decreasing radiation induced cell damage. Radiat. Res. 160, 568-578 (2003) and Epperly, M. W. et al. Ethyl pyruvate, a potentially effective total body irradiation damage mitigator. Radiat. Res. 168, 552-559 (2007)). The data were analyzed using linear quadratic and single-hit, multi-target models (Id.).

The test system of the next series is C57BL/6NHsd female mice. The series is described as follows: In vivo irradiation survival curves, total body irradiation. The arrangement: species or system mouse. The text has this:
Other groups of mice were control mice, or vehicle only irradiated mice.
The mice were followed for the development of irradiation induced damage to the hematopoietic system which occurs within the first 30 days after irradiation (FIG. 7).

A short description of series [1]: Hypoglycemia at the dose of glyburide used in the present study. It counts as in vivo.

“Also recorded” adds a separate entry of the source.

In the case of `COc1ccc(Cl)cc1C(=O)NCCc1ccc(S(=O)(=O)NC(=O)NC2CCCCC2)cc1` [glyburide, 5-chloro-N-[2-[4-(cyclohexylcarbamoylsulfamoyl)phenyl]ethyl]-2-methoxy-benzamide], the “protection over a range of irradiation exposure” value in the series with T98G cells (200 μM, 1-h prior to 5-25 Gy) is listed as “effectively protected cells”. Further, the “irradiation induced apoptosis, post-irradiation treatment” value with T98G cells (added 30-min after γ-irradiation (25 Gy)) is “protected cells from irradiation induced apoptosis to a similar extent”. For the same molecule, the “irradiation induced cell death (PS externalization/PI permeability)” value in the series on T98G cells is “attenuated irradiation induced cell death in a concentration-dependent manner; also recorded: demonstrated radioprotective effect”; with T98G cells (listed as Glyburide), “effectively relieved irradiation induced cell death”. Further, the radioprotection entry is given as “effective radioprotection” with BEAS-2B cells; “effectively relieved irradiation induced cell death” in the series with BEAS-2B cells (listed as Glyburide); “effective radioprotection” in the series with U-87 MG cells; “effectively relieved irradiation induced cell death” with U-87 MG cells (listed as Glyburide); “effective radioprotection” in the series on human primary astrocytes; “effectively relieved irradiation induced cell death” with human primary astrocytes (listed as Glyburide). In addition, the radioprotection result in the series on H1299 cells, with HeLa cells and in the series on KM101 cells was “no protective effect; also recorded: only limited protection” each time. For the same molecule, the “n or shoulder on the irradiation survival curve” value in the series with 32D cl 3 cells (10 μM in methylcellulose following irradiation (0-8 Gy)) worked out at 2.5±0.9. For the same molecule, the “survival of 32D cl 3 cells” value with 32D cl 3 cells (10 μM, 1-h before irradiation (0-8 Gy)) was “significantly increased the survival”. Also, in the series on C57BL/6NHsd female mice (5 mg/kg i.p. 10 min after 9.5 Gy total body irradiation), the “survival compared to irradiated controls” value is “no significant increase in survival; also recorded: not protected from irradiation”. The “survival compared to irradiated controls and vehicle only” value with C57BL/6NHsd female mice (5 mg/kg i.p. 10 min before 9.5 Gy total body irradiation, P=0.04) is “significantly increased survival; also recorded: protected as seen by an increase in survival; also recorded: increased the survival rate”. Moreover, the mice survived is reported as 60% in the series with C57BL/6NHsd female mice (5 mg/kg intraperitoneal 10 min before 9.5 Gy total body irradiation) and 44% in the series on C57BL/6NHsd female mice (glyburide injected 10-min after 9.5 Gy total body irradiation). Besides, the hypoglycemia result in [1] is reported as “did not cause hypoglycemia”.

The record behind these values is patent US8883852B2, “Radioprotective agents” (University of Pittburgh—Of the Commonwealth System of …, priority 2008, dated 2014).
